Results reported in US12077503B2, “Substituted cyclic amides and their use as herbicides” (FMC CORPORATION, priority 2015, dated 2024).
Read-outs that look alike come from different tables or passages of the source.

Key:
Format in all cases: in vivo
rice (Oryra sativa) = assay: Test B flooded paddy test; details: Oryza sativa, Flood, 250 g ai/ha; scale of 0 to 100 where 0 is no effect and 100 is complete control; read-out: Rice plant response rating
In short: (§1)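 2-leaf plants; pots flooded 3 cm over soil; cpd added to paddy water; depth held; greenhouse 13–15 d; visual rating vs controls, 0 = no effect, 100 = complete control.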

[1] = tested on: ducksalad (Heteranthera limosa); assay: Test B flooded paddy test; details: Heteranthera limosa, Flood, 250 g ai/ha; scale of 0 to 100 where 0 is no effect and 100 is complete control; read-out: Ducksalad plant response rating
In short: as §1

[2] = tested on: barnyardgrass (Echinochloa crus-galli); assay: Test B flooded paddy test; details: Echinochloa crus-galli, Flood, 250 g ai/ha; scale of 0 to 100 where 0 is no effect and 100 is complete control; read-out: Barnyardgrass plant response rating
In short: as §1

[3] = tested on: sedge, umbrella (small-flower umbrella sedge, Cyperus difformis); assay: Test B flooded paddy test; details: Cyperus difformis, Flood, 250 g ai/ha; scale of 0 to 100 where 0 is no effect and 100 is complete control; read-out: Sedge, Umbrella plant response rating
In short: as §1

Kochia (Kochia scoparia) [4] = assay: Test A preemergence; details: Bassia scoparia, pre-emergence, 240 h; for pest or weed control at 125 g/ha: 125 g ai/ha, visual rating after approx. 10 d, 0 to 100 scale where 0 is no effect and 100 is complete control; for pest or weed control at 500 g/ha: 500 g ai/ha
In short: (§2)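 Compounds were formulated in a non-phytotoxic solvent mixture with surfactant and applied as a preemergence directed soil spray after seeding, or sprayed postemergence over plants 2 to 10 cm tall at the one- to two-leaf stage. Evaluation after about 10 d compared treated with untreated controls, using a scale from 0 (no effect) to 100 (complete control).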

[5] = tested on: Galium (catchweed bedstraw, Galium aparine); assay: Test A postemergence; details: Galium, post-emergence, 240 h, read-out: Plant response rating, Galium; for pest or weed control at 125 g/ha: 125 g ai/ha, postemergence, visual injury after approximately 10 d, 0 to 100 scale (0 no effect, 100 complete control)
In short: as §2

[6] = tested on: blackgrass (Alopecurus myosuroides); assay: Test A postemergence; details: Alopecurus myosuroides, post-emergence, 240 h, read-out: Plant response rating, Blackgrass; for pest or weed control at 125 g/ha: 125 g ai/ha, postemergence, visual injury after approximately 10 d, 0 to 100 scale (0 no effect, 100 complete control)
In short: as §2

[7] = tested on: ryegrass, Italian (Italian ryegrass, Lolium multiflorum); assay: Test A postemergence; details: Lolium multiflorum, post-emergence, 240 h, read-out: Plant response rating, Ryegrass, Italian; for pest or weed control at 125 g/ha: 125 g ai/ha, postemergence, visual injury after approximately 10 d, 0 to 100 scale (0 no effect, 100 complete control)
In short: as §2

[8] = tested on: giant foxtail (Setaria faberii); assay: Test A postemergence; details: Setaria faberi, post-emergence, 240 h, read-out: Plant response rating, Foxtail, Giant; for pest or weed control at 125 g/ha: 125 g ai/ha, postemergence, visual injury after approximately 10 d, 0 to 100 scale (0 no effect, 100 complete control)
In short: as §2

[9] = tested on: barnyardgrass (Echinochloa crus-galli); assay: Test A postemergence; details: Echinochloa crus-galli, post-emergence, 240 h, read-out: Plant response rating, Barnyardgrass; for pest or weed control at 125 g/ha: 125 g ai/ha, postemergence, visual injury after approximately 10 d, 0 to 100 scale (0 no effect, 100 complete control)
In short: as §2

[10] = tested on: pigweed (Amaranthus retroflexus); assay: Test A postemergence; details: Amaranthus retroflexus, post-emergence, 240 h, read-out: Plant response rating, Pigweed; for pest or weed control at 125 g/ha: 125 g ai/ha, postemergence, visual injury after approximately 10 d, 0 to 100 scale (0 no effect, 100 complete control)
In short: as §2

[11] = tested on: ragweed (common ragweed, Ambrosia elatior); assay: Test A postemergence; details: Ambrosia artemisiifolia, post-emergence, 240 h, read-out: Plant response rating, Ragweed; for pest or weed control at 125 g/ha: 125 g ai/ha, postemergence, visual injury after approximately 10 d, 0 to 100 scale (0 no effect, 100 complete control)
In short: as §2

corn (Zea mays) = assay: Test A postemergence; details: Zea mays, post-emergence, 240 h; for Corn plant response rating (crop injury, 0 = no effect, 100 = complete kill) at 125 g/ha: 125 g ai/ha, postemergence, visual injury after approximately 10 d, 0 to 100 scale (0 no effect, 100 complete control)
In short: as §2

Kochia (Kochia scoparia) [12] = assay: Test A postemergence; details: Bassia scoparia, post-emergence, 240 h, read-out: Plant response rating, Kochia; for pest or weed control at 125 g/ha: 125 g ai/ha, postemergence, visual injury after approximately 10 d, 0 to 100 scale (0 no effect, 100 complete control)
In short: as §2

[13] = tested on: wheat (Triticum aestivum); assay: Test A postemergence; details: Triticum aestivum, post-emergence, 240 h, read-out: Plant response rating, Wheat; for plant injury at 125 g/ha: 125 g ai/ha, postemergence, visual injury after approximately 10 d, 0 to 100 scale (0 no effect, 100 complete control)
In short: as §2

[14] = preemergence, read-out: Plant response rating, Kochia
[15] = Postemergence, 31 g ai/ha, visual injury after approx. 10 d, 0 to 100 scale, 0 no effect, 100 complete control

| Structure (SMILES) | pest or weed control at 250 g/ha (rice (Oryra sativa)) [%] | pest or weed control at 250 g/ha [1] [%] | pest or weed control at 250 g/ha [2] [%] | pest or weed control at 250 g/ha [3] [%] | pest or weed control at 125 g/ha (Kochia (Kochia scoparia) [4]; [14]) [%] | pest or weed control at 125 g/ha [5] [%] | pest or weed control at 125 g/ha [6] [%] | pest or weed control at 125 g/ha [7] [%] | pest or weed control at 125 g/ha [8] [%] | pest or weed control at 125 g/ha [9] [%] | pest or weed control at 125 g/ha [10] [%] | pest or weed control at 125 g/ha [11] [%] | Corn plant response rating (crop injury, 0 = no effect, 100 = complete kill) at 125 g/ha (corn (Zea mays)) [%] | pest or weed control at 125 g/ha (Kochia (Kochia scoparia) [12]) [%] | plant injury at 125 g/ha [13] [%] | other results |
| --- | --- | --- | --- | --- | --- | --- | --- | --- | --- | --- | --- | --- | --- | --- | --- | --- |
| O=C1NCC[C@H](c2ccc(Cl)cc2)[C@H]1C(=O)Nc1cccc(F)c1F [Compound 795] | 0 | 70 | 0 | 0 | 0 | 0 | 0 | 0 | 50 | 70 | 0 | 0 | 0 | 0 | – | pest or weed control at 31 g/ha (Kochia (Kochia scoparia) [4]; Preemergence, 31 g ai/ha, 0 to 100 scale (0 no effect, 100 complete control), read-out: Plant response rating, Kochia): 0%; pest or weed control at 31 g/ha [5, 15]: 0%; pest or weed control at 31 g/ha [6, 15]: 0%; pest or weed control at 31 g/ha [7, 15]: 0%; pest or weed control at 31 g/ha [8, 15]: 0%; pest or weed control at 31 g/ha [9, 15]: 20%; pest or weed control at 31 g/ha [10, 15]: 0%; pest or weed control at 31 g/ha [11, 15]: 0%; Corn plant response rating (crop injury, 0 = no effect, 100 = complete kill) at 31 g/ha (corn (Zea mays); [15]): 0%; pest or weed control at 31 g/ha (Kochia (Kochia scoparia) [12]; [15]): 0%; plant injury at 31 g/ha [13, 15]: 0% |
| O=C1NC[C@H](c2ccc3c(c2)CCO3)[C@H]1C(=O)Nc1cccc(F)c1F [Compound 785] | 0 | 90 | 40 | 0 | 20 | 50 | 20 | 30 | 70 | 90 | 0 | 0 | 0 | 0 | 0 | pest or weed control at 500 g/ha (Kochia (Kochia scoparia) [4]; Preemergence, visual injury vs untreated controls after approximately 10 d, read-out: Kochia plant response rating (0 to 100 scale where 0 is no effect and 100 is complete control)): 40% |
| CCc1cc(CC)cc([C@H]2CN(C)C(=O)[C@@H]2C(=O)Nc2ccccc2C(F)(F)F)c1 [Compound 737] | 0 | 0 | 0 | 0 | 40 | 30 | 30 | 50 | 70 | 40 | 20 | 0 | 40 | 0 | 40 | pest or weed control at 500 g/ha (Kochia (Kochia scoparia) [4]; preemergence, 0 to 100 scale, 0 = no effect, 100 = complete control, read-out: Plant response rating, Kochia): 50% |
